Laboratory results published in US20230241167A1, “Use of Caveolin-1 Scaffolding Domain Peptides for Treating Disease and Disorders” (MUSC Foundation for Research Development, priority 2020, published 2023).
Ends that are not written are not given here.

Experiments:
[1] = tested on: fibrosis in lung, skin, and heart; settings: literature; cited from earlier work
[2] = tested on: Bone marrow (BM) monocytes; experiment: Migration of bone marrow monocytes from bleomycin-treated mice treated in vivo; settings: mice treated in vivo prior to harvesting the monocytes
Text: Recruitment of activated monocytes into damaged lung tissue contributes to the progression of fibrosis and is suppressed in vivo by CSD (FIG. 22). Bone marrow (BM) monocytes were isolated from control and bleomycin-treated mice.

[3] = tested on: aged mice (18-month old), brain tissue; experiment: Aging-associated pathological changes in the brain of aged mice; type: in vivo; settings: 18-month old mice; CSD injections for four weeks; Western blot
Protocol: FIG. 16 provides an overview of an experiment using CSD (SEQ ID NO: 1). It is similar to the experiment described in FIG. 9 except that the readouts were performed on brain tissue rather than heart and kidney tissue.
Mice were treated as described in FIG. 10, except that CSD injections were for four weeks. Brain tissue extracts were analyzed by Western blot for microvascular leakage and fibrosis (FIG. 17) and for tyrosine kinase activation (FIG. 18). In the quantifications (n=3), significant changes are shown as ***p<0.001 and **p<0.01 between young and aged mice and ^^^p<0.001 and ^^p<0.01 for decreases in aged mice due to CSD treatment.

bleomycin-treated mice = experiment: Bleomycin-induced lung and skin fibrosis, treatments delivered by pump; type: in vivo
Protocol: Experiments were conducted to examine the effect of unmodified CSD subdomains on lung and skin fibrosis. […] Pumps containing bleomycin or saline vehicle were implanted subcutaneously into mice. After one week, the pumps had emptied and were replaced with pumps designed to empty over two weeks containing the indicated treatments (n=6 per group). After these two weeks, the mice were sacrificed.
Skin in the vicinity of the pump outlet was harvested for measurement of the thickness of the dermis and the intradermal fat. ^^^p<0.001 for Saline/Vehicle vs Bleo/Vehicle. ***p<0.001, **p<0.01, *p<0.05 for Bleo/Vehicle vs Bleo/Peptide Treatments.

[4] = tested on: aged C57/Bl6 mice (18 months); experiment: Aging-associated pathological changes in heart and kidney of aged mice; type: in vivo; settings: echocardiography
[5] = tested on: aged C57/Bl6 mice (18 months); experiment: as above; type: in vivo
Protocol: The function of various organs in the elderly goes downhill progressively. This is in part due to increases in fibrosis and microvascular leakage. The experiments presented in this Example have examined these progressive processes in mice.
Young C57/Bl6 mice (3 months), middle-aged C57/Bl6 mice (9 months), and aged C57/Bl6 mice (18 months) were injected daily i.p. for six weeks with saline vehicle or CSD. IgG heavy chain leakage and Col I accumulation were evaluated by Western blots of heart (FIG. 10) and kidney tissue (FIG. 11). Actin was the loading control. Two to three mice per category are shown. In the quantifications (n=4), significant changes are shown as ***p<0.001 between young and aged mice and ^^^p<0.001 for decreases in aged mice treated with CSD. In FIG. 12, representative examples of picrosirius red staining of heart and kidney tissue sections from the indicated mice are shown. The data were quantified (n=3) as in terms of Collagen Volume Fraction. Significant changes are shown as ***p<0.001 and **p<0.01 between young and aged mice and ^p<0.05 for decreases in aged mice treated with CSD.
The same extracts used in FIG. 10 and FIG. 11 were analyzed by Western Blot for tyrosine kinase activation using antibodies specific for phosphorylated tyrosine residues in PDGFR (α-Y849/β-Y857), c-Src Y426, and Pyk2 Y402. Actin was the loading control. In the quantifications, significant changes are shown as ***p<0.001 and **p<0.01 between young and aged mice and ^^^p<0.001 and ^^p<0.01 for decreases in Aged mice treated with CSD.
Echocardiographic analyses were performed on the same mice used in FIG. 10 and FIG. 11 prior to their sacrifice. M-mode echo measurements in parasternal short-axis (PSAX) view were used to quantify changes in EF and FS. Tissue Doppler measurements in PSAX were used to measure IVRT. Values are shown as Mean±SEM. Statistically significant changes are shown as ***p<0.001 between young and aged mice and ^p<0.05 for improved functions in aged mice due to CSD treatment (FIG. 14).
Left ventricle tissue sections from the same mice used in FIG. 10 were stained with hematoxylin-eosin and cardiomyocyte cross-sectional area was quantified by measuring at least 50 cardiomyocytes for each group (n=3) using SigmaScan Pro image analysis. Statistical significance is shown as ***p<0.001 between young and aged mice and ^p<0.05 for decreased hypertrophy in aged mice due to CSD treatment (FIG. 15).

Ang II-infused mice = experiment: Angiotensin II-induced congestive heart failure (CHF) model; type: in vivo; settings: daily i.p. injections
Protocol: FIG. 1 provides an overview of an experiment using Full-Length CSD, 82-89, 88-95, and 94-101 (SEQ ID NO:1, SEQ ID NO:2, SEQ ID NO:3, and SEQ ID NO:4 respectively).
Young mice (3 months old) infused with Ang II or vehicle for two weeks received daily i.p. injections of CSD, the indicated subdomains or scrambled CSD (0.8 μmol/kg). Mice were evaluated by Echocardiography for changes in posterior wall thickness (pWTh), fractional shortening (FS), cardiac output (CO), ejection fraction (EF), and isovolumic relaxation time (IVRT). Significant changes are shown as ***p<0.001 for Sham+Veh vs AngII+Veh. Significant suppression of AngII-induced changes is shown as ^p<0.05, ^^p<0.01, and ^^^p<0.001 for AngII+Veh vs AngII+CSD or AngII+CSD subdomains. The number of mice used in each treatment are shown in the HW/BW data.
Young mice (3 months old) infused with Ang II or vehicle for two weeks received daily i.p. injections of the indicated subdomains of CSD. The results of a typical experiment for Col I and HSP47 (FIG. 4) and for microvascular leakage (FIG. 5) are shown in Western blots (2 to 3 mice per group). The data are quantified below (n=4). Significant changes are shown as *p<0.05 and **p<0.01 for Sham+Veh vs Ang II+Veh. Significant suppression of Ang II-induced changes by subdomains are shown as ^p<0.05, […], and ^^^p<0.001 for Ang II+Veh vs Ang II+CSD subdomains.
Young mice (3 months old) infused with Ang II or vehicle for two weeks received daily i.p. injections of W82-89. IgG heavy chain (IgGH) leakage and Col I accumulation are shown in Western blots. The actin loading control is present twice because IgGH was analyzed in the supernatant fraction of heart homogenate while Col I is found in the pellet fraction. In the quantitation (n=4), significant changes are shown as **p<0.01 and ***p<0.001 for Sham+Veh vs Ang II+Veh and ^^p<0.01 and ^^^p<0.001 for reversal of AngII-induced changes by W82-89.

[6] = skin in the vicinity of the pump outlet
[7] = 18-month old mice, daily i.p. six weeks, Western blot
[8] = aged mice, Western blot for phosphorylated tyrosine residues

Substance: caveolin-1 scaffolding domain peptide (DGIWKASFTTFTVTKYWFYR-NH2) [CSD, amino acids 82-101 of caveolin-1]
- inhibition of fibrosis in vivo [1]: inhibits fibrosis in vivo in lung, skin, and heart
- enhanced migration of BM monocytes from bleomycin-treated mice [2]: suppression
- level of activated tyrosine kinases in the brain [3]: decreases these levels almost to the levels observed in healthy 3-month old mice
- level of fibrosis in the brain [3]: decreases these levels almost to the levels observed in healthy 3-month old mice
- level of microvascular leakage in the brain [3]: decreases these levels almost to the levels observed in healthy 3-month old mice
- dermal fibrosis (thickness of the dermis) (bleomycin-treated mice; [6]): suppression
- loss of intradermal fat (bleomycin-treated mice; [6]): suppression
- bleomycin-induced lung fibrosis (Ashcroft score) (bleomycin-treated mice; treatment by pump over two weeks after one week bleomycin, n=6): suppression
- FS and SV (ventricular function) [4]: positive effect
- level of fibrosis (Col I accumulation) in the heart [5, 7]: reverses the levels of fibrosis and microvascular leakage almost to the level observed in 3-month old mice
- level of fibrosis (Col I accumulation) in the kidney [5, 7]: reverses the levels of fibrosis and microvascular leakage almost to the level observed in 3-month old mice
- level of microvascular leakage (IgG heavy chain) in the heart [5, 7]: reverses the levels of fibrosis and microvascular leakage almost to the level observed in 3-month old mice
- level of microvascular leakage (IgG heavy chain) in the kidney [5, 7]: reverses the levels of fibrosis and microvascular leakage almost to the level observed in 3-month old mice
- picrosirius red staining (collagen volume fraction), heart ([5]; aged mice, heart tissue sections): significantly reduced
- picrosirius red staining (collagen volume fraction), kidney ([5]; aged mice, kidney tissue sections): significantly reduced
- aging-associated activation of tyrosine kinases PDGFR, c-Src and Pyk2, heart [5, 8]: almost completely reversed
- aging-associated activation of tyrosine kinases PDGFR, c-Src and Pyk2, kidney [5, 8]: almost completely reversed
- IVRT (prolonged ventricular relaxation time caused by aging) ([5]; aged mice, echocardiography): resolved by CSD treatment
- cardiomyocyte hypertrophy (cross-sectional area) ([5]; aged mice, left ventricle sections): reversed
- suppression of the effects of AngII on Heart Weight/Body Weight (HW/BW) ratio (Ang II-infused mice; young mice (3 months) infused with Ang II two weeks): suppress
- suppression of the effects of AngII on Ejection Fraction (EF), Fractional Shortening (FS), Isovolumic Relaxation Time (IVRT) (Ang II-infused mice; young mice infused with Ang II two weeks, echocardiography): suppress
